{"source": "paper PMC11571215", "about": "“Optimization of Antiproliferative Properties of Triimine Copper(II) Complexes” (Journal of Medicinal Chemistry, 2024)", "key": {"[1]": {"test_system": "A2780 cells (ovarian carcinoma)", "assay": "MTS cell viability assay, A2780", "assay_type": "cell-based, human", "conditions": "for IC50: 48 h of exposure, MTS, relative IC50, mean + SEM; for SI A2780: ratio IC50 fibroblasts / IC50 A2780", "description": "The antiproliferative effect of the Cu(II) complexes in tumor and healthy cell lines was assessed through the MTS assay, a colorimetric method that is widely used to evaluate cellular viability, specifically mitochondrial viability.[53],[54] Cellular viability was determined after 48 h exposure to a concentration range (0.1–50 μM) of Cu(II) complexes in three tumor cell lines. […] Additionally, the viability of healthy primary dermal fibroblasts was performed as a comparison of the complexes’ antiproliferative effects in normal cells.\nCellular viability assays were performed using HCT116, HCT116-DoxR, and A2780 cancer cell lines as well as normal human primary fibroblasts. Cells were seeded at a density of 0.75 × 10^5 cells/mL in 96-well plates and incubated at 37 °C with 5% (v/v) CO2 for 24 h. After this incubation period, the copper complexes were accurately weighed and immediately dissolved in 100% (v/v) dimethyl sulfoxide (DMSO). Subsequently, the complexes were diluted to the final concentration using a cell culture medium. The culture medium in each well was replaced with fresh medium containing varying concentrations of the complexes (ranging from 0.01 to 50 μM). Negative controls contained culture medium with 0.1% (v/v) DMSO, and positive controls contained 0.4 μM Dox.\nAfter an additional 48 h of incubation under the same conditions, cellular viability was assessed using the CellTiter 96 Aqueous One Solution Cell Proliferation Assay kit (Promega, Madison, USA). Metabolically active cells contain mitochondrial dehydrogenases that can reduce 3-(4,5-dimethylthiazol-2-yl)-5-(3-carboxymethoxyphenyl)-2-(4-sulfophenyl)-2H-tetrazolium, the inner salt (MTS) to formazan. The absorbance of formazan, measured at 490 nm in a microplate reader (Tecan Infinite M200, Tecan, Männedorf, Switzerland), is directly proportional to the number of viable cells.[104]\nThe cell viability versus concentration graphics were analyzed using Prism 8 software (GraphPad) to determine the half-maximal inhibitory concentration (IC50) of each complex for the respective cell line. Additionally, the selective index (SI) for each complex was calculated by dividing the IC50 of human fibroblasts by the IC50 values of the tested cancer cell lines."}, "[2]": {"test_system": "primary dermal fibroblasts", "assay": "Cell migration (wound healing) assay", "assay_type": "cell-based, human", "conditions": "24 h; complexes at IC50, Dox 6 μM; DMSO control 100%", "description": "Cellular migration is the individual movement of cells from one location to another.[96] This migratory process is an integral part of both the metastatic process and wound healing.[54] […] The in vitro wound healing assay is highly used to understand how the complexes affect cellular migration by measuring the closure of a gap previously created in the cell culture plate. […] Additionally, cells were subjected to the vehicle control of 0.1% DMSO and the positive control of Dox (6 μM), and the percentage of remission/regeneration was calculated (Figure 18).\nFibroblasts were seeded in 24-well plates at a cell density of 4 × 10^5 cells/mL. The plates were incubated for 24 h under the same conditions described before until a confluent cell monolayer was obtained. […] The cells were incubated at 37 °C for 48 h. The plates were photographed under an inverted microscope (Nikon TMS, Nikon Instruments, Tokyo, Japan) at 4× magnification (immediately after exposure to the complexes (0 h), 24, and 48 h following exposure)."}, "HCT116-DoxR cells [3]": {"test_system": "HCT116-DoxR cells", "assay": "Mitochondrial membrane potential (JC-1, flow cytometry)", "assay_type": "cell-based, human", "conditions": "48 h; complexes at IC50, Dox 6 μM, Cis 5 μM; normalized to DMSO", "quoted_text": "Changes in membrane potential can be measured and represent an essential parameter, indicating the functional state of the mitochondria. For this analysis, the lipophilic cationic probe 5,5′,6,6′-tetrachloro-1,1′,3,3′-tetraethylbenzimidazolylcarbocyanine iodide (JC-1) was used, allowing the evaluation of depolarization or hyperpolarization of the mitochondrial membrane.[72] In healthy cells, JC-1 accumulates inside the electronegative mitochondria as aggregates (red fluorescence) when the membrane potential is positively charged (hyperpolarized).[71] However, when depolarization of the mitochondrial membrane potential occurs, the JC-1 probe will accumulate outside of the mitochondria in its monomeric form (green fluorescence), therefore causing a decrease in the ratio of JC-1 aggregate/monomer fluorescence intensity.[61],[71] […] Subsequently, the cells were stained with the JC-1 probe and subjected to flow cytometry analysis to confirm potential alterations in the mitochondrial membrane potential induced by the complexes. […]\nThe mitochondrial membrane potential (ΔΨM) was evaluated by using the JC-1 Mitochondrial Membrane Potential Assay Kit (Abnova Corporation, Walnut, California, USA). […] The samples were then analyzed in the Attune Acoustic Focusing Flow Cytometer (Life Technologies, Carlsbad, CA, USA) and results were processed with Attune Cytometric software."}, "calf-thymus DNA (ctDNA)": {"test_system": "calf-thymus DNA (ctDNA)", "assay": "Ethidium bromide displacement assay", "assay_type": "binding", "conditions": "for Ksv (Stern-Volmer constant): ctDNA-EB adduct in PBS buffer, EB 50 μM", "from_the_text": "Compounds that intercalate between DNA base pairs equally or more strongly than EB replace it from the adduct ctDNA-EB, which results in a noticeable decrease or quenching of the fluorescence emission. […] For both Cu1a and Cu1b, the decrease in the fluorescence intensity of ctDNA-EB with increasing complex concentrations fulfills the linear Stern–Volmer equation (eq 3)[90]: [drawing 6] 3\nThe apparent binding constants (Kapp) are estimated using eq 4: [drawing 7] 4 (where KEB = 1.0 × 10^7 M^–1, [EB] is the EB concentration (50 μM), [Q50] is the complex concentration at 50% reduction of EB fluorescence intensity, estimated based on the linear Stern–Volmer plot for I^0/I = 2). Kapp is equal to 1.75 × 10^5 M^–1 for Cu1a and 2.35 × 10^6 M^–1 for Cu1b. […] Nevertheless, both Cu(II) complexes show rather moderate ability to replace EB from the adduct with ctDNA.[21]\nEthidium bromide (EB) and calf-thymus DNA (ctDNA) were purchased from Sigma-Aldrich and Thermo Fisher Scientific, respectively. Prior to experiments, a solution containing 10 mg/mL of ctDNA in DNase-free and RNase-free distilled, deionized water was spectroscopically monitored at 260 nm and at 280 nm to determine the concentration and check the purity.\nThe ethidium bromide (EB) fluorescence displacement assay was carried out using a Hitachi F-7000 spectrofluorometer. An equimolar amount (50 μM) of EB solution was added to ctDNA solution at room temperature, followed by 2 h incubation in the dark. The compound was then titrated into the EB–ctDNA mixture, well mixed, and allowed to stand for 30 min. The concentrations of the complexes varied from 0 to 40 μM."}, "HCT116-DoxR cells [4]": {"test_system": "HCT116-DoxR cells", "assay": "Cellular senescence (beta-galactosidase, flow cytometry)", "assay_type": "cell-based, human", "conditions": "48 h at IC50, vs 0.1% DMSO", "description": "The percentage of senescent cells was assessed using the Senescence Assay Kit (Abcam), enabling the quantification of beta-galactosidase activity through flow cytometry. […] A 0.1% (v/v) DMSO solution served as vehicle control, and Dox and Cis were used as positive controls.\nIn this assay, a senescence assay kit (Beta Galactosidase, Fluorescence) (ab228562; Abcam, UK) was used. HCT116-DoxR cells were seeded in 24-well plates at a density of 5 × 10^5 cells/well and incubated for 24 h, at the conditions mentioned before. […] Additionally, 0.1% (v/v) DMSO was used as a vehicle control, and 6 μM Dox and 5 μM Cis were used as positive controls. At the end of the incubation period, the medium was removed, and 500 μL of DMEM with 1.5 μL of Senescence dye was added to each well. The plates were incubated for an additional 1–2 h at 37 °C. Subsequently, the well contents were removed, and the cells were washed twice with Wash Buffer (provided by the kit). The cells were trypsinized with TrypLE Express and then centrifuged for 5 min at 500 × g. After centrifugation, the cells were washed with the wash buffer, centrifuged, and resuspended again in 500 μL of Wash Buffer. The samples were subsequently analyzed by an Attune acoustic focusing flow cytometer (Life Technologies, Carlsbad, USA), and the results were analyzed by the respective software (Attune Cytometric software)."}, "pUC18 plasmid DNA (pDNA)": {"test_system": "pUC18 plasmid DNA (pDNA)", "assay": "Plasmid DNA interaction and cleavage (gel electrophoresis)", "conditions": "24 h; for pDNA cleavage / isoform change: 100 ng pUC18, 5–100 μM complex, 37 °C; for pDNA cleavage in presence of NaN3 scavenger: 50 μM complex + 50 μM NaN3, 37 °C; for pDNA cleavage in presence of H2O2: 50 μM complex + 100 μM H2O2, 37 °C", "protocol": "The procedure involved exposing 100 ng of pDNA (pUC18) to increasing concentrations of complexes Cu1a and Cu1b (5, 25, 50, 75, and 100 μM), which were incubated at 37 °C for 24 h.\nThe sodium azide (NaN3) scavenger, capable of quenching singlet oxygen (^−1O2), was used for this purpose.[93] Additionally, hydrogen peroxide (H2O2) was employed as a well-known positive control for DNA cleavage through oxidative mechanisms in the presence of ROS.[71]\nExperiments were conducted with 100 ng of pUC18 DNA incubated with increasing concentrations of Cu1a and Cu1b complexes (5, 25, 50, 75, and 100 μM) or in their absence (pUC18 only or with 0.1% DMSO (v/v), both negative controls). For this assay, positive control was included, containing pUC18 DNA (100 ng) previously incubated with the HindIII enzyme to linearize the plasmid in the last 2 h of incubation. […] Electrophoresis was performed in 0.8% (w/v) agarose gel (NZYtech) in TAE 1× buffer at a constant voltage of 70 V for 80 min. The electrophoresis gel image was acquired using the Gel Doc EZ Imager (Bio-Rad), and band quantification was performed using ImageJ software.\nThe pDNA (100 ng) was exposed to reactive oxygen species (ROS) scavenging agents, namely, sodium azide (NaN3) at 50 μM and hydrogen peroxide (H2O2) at 100 μM. […] Controls were also included where 100 ng of pUC18 was exposed to 0.1% (v/v) DMSO, and the activity of the HindIII restriction enzyme (linearized plasmid control) for 24 h. All the samples were adjusted to a final volume of 20 μL and incubated for 24 hs at 37 °C. […] The electrophoresis gel image was acquired in Gel Doc EZ Imager (Bio-Rad) and band quantification was performed using ImageJ software."}}}
{"smiles": "N.N.[Cl][Pt][Cl]", "note": "[Cisplatin]", "values": [{"measurement": "IC50", "setting": "[1]", "value": "1900 ± 200", "unit": "nM"}]}
{"smiles": "[Cl][Cu-3]12([Cl])[n+]3ccccc3-c3cc(-c4cccc5ccccc45)cc([n+]31)-c1cccc[n+]12", "note": "[Cu1a]", "values": [{"measurement": "percentage of remission/regeneration of the wound", "setting": "[2]", "value": "approximately 66%"}, {"measurement": "JC-1 red/green fluorescence ratio (aggregate/monomer)", "setting": "HCT116-DoxR cells [3]", "value": "approximately 0.79"}, {"measurement": "Ksv (Stern-Volmer constant)", "setting": "calf-thymus DNA (ctDNA)", "value": "3.8 × 10^3 M^–1"}, {"measurement": "senescent cells", "setting": "HCT116-DoxR cells [4]", "value": "increase in the percentage of senescent cells"}, {"measurement": "pDNA cleavage / isoform change", "setting": "pUC18 plasmid DNA (pDNA)", "value": "an increase in the circular form (N) was observed compared to negative control with the simultaneous decrease of the supercoiled isoform"}, {"measurement": "pDNA cleavage in presence of NaN3 scavenger", "setting": "pUC18 plasmid DNA (pDNA)", "value": "an increase in the supercoiled isoform and a reduction in the nicked isoform"}, {"measurement": "pDNA cleavage in presence of H2O2", "setting": "pUC18 plasmid DNA (pDNA)", "value": "pDNA cleavage increased compared to H2O2 alone"}, {"measurement": "IC50", "setting": "[1]", "value": "530 ± 70", "unit": "nM"}, {"measurement": "SI A2780", "setting": "[1]", "value": 17.5}]}
{"smiles": "[Cl][Cu-3]12([Cl])[n+]3ccccc3-c3cc(-c4ccc5ccccc5c4)cc([n+]31)-c1cccc[n+]12", "note": "[Cu1b]", "values": [{"measurement": "percentage of remission/regeneration of the wound", "setting": "[2]", "value": 69, "unit": "%"}, {"measurement": "JC-1 red/green fluorescence ratio (aggregate/monomer)", "setting": "HCT116-DoxR cells [3]", "value": 0.88}, {"measurement": "Ksv (Stern-Volmer constant)", "setting": "calf-thymus DNA (ctDNA)", "value": "4.7 × 10^3 M^–1"}, {"measurement": "apparent binding constant Kapp", "setting": "calf-thymus DNA (ctDNA); eq 4, KEB = 1.0 × 10^7 M^–1, [EB] 50 μM", "value": "2.35 × 10^6 M^–1"}, {"measurement": "senescent cells", "setting": "HCT116-DoxR cells [4]", "value": "highest quantity of cells in senescence"}, {"measurement": "pDNA cleavage / isoform change", "setting": "pUC18 plasmid DNA (pDNA)", "value": "a decrease in supercoiled forms and an increase in the intensity of the circular isoform at concentrations of 25 and 50 μM"}, {"measurement": "pDNA cleavage in presence of NaN3 scavenger", "setting": "pUC18 plasmid DNA (pDNA)", "value": "an increase in the supercoiled isoform and a decrease in the nicked isoform"}, {"measurement": "pDNA cleavage in presence of H2O2", "setting": "pUC18 plasmid DNA (pDNA)", "value": "a complete disappearance of pDNA isoforms is observed"}, {"measurement": "IC50", "setting": "[1]", "value": "570 ± 60", "unit": "nM"}, {"measurement": "SI A2780", "setting": "[1]", "value": 23.3}]}
{"smiles": "COc1cccc2c1C(=O)c1c(O)c3c(c(O)c1C2=O)C[C@@](O)(C(=O)CO)C[C@@H]3O[C@H]1C[C@H](N)[C@H](O)[C@H](C)O1", "note": "[Doxorubicin]", "values": [{"measurement": "percentage of remission/regeneration of the wound", "setting": "[2]", "value": 68, "unit": "%"}, {"measurement": "IC50", "setting": "[1]; Homo sapiens, A2780", "value": "100 ± 40", "unit": "nM"}]}
